Legend:
[1] = cited from earlier work
[2] = Polymorphic stability on storage, checked by XRPD; assay type: physicochemical; details: stored 3 months in self-sealing polyethylene bag, normal atmospheric conditions, room temperature
Method: The process of the present invention provides stable co-crystals of aripiprazole with fumaric acid. The term “stable crystalline form” refers to stability of the crystalline form under the standard temperature and humidity conditions of testing of pharmaceutical products, wherein the stability is indicated by preservation of the original polymorphic form.
Aripiprazole was prepared according to the process given in Example 2 and was packaged in a self-sealing polyethylene bag. The material was stored for 3 months under normal atmospheric conditions at room temperature and checked for polymorphic stability.

Row | SMILES | solubility in aqueous media [1] | polymorphic stability (maintenance of the original XRPD pattern) [2]
1 | O=C1CCc2ccc(OCCCCN3CCN(c4cccc(Cl)c4Cl)CC3)cc2N1 [aripiprazole, 7-[4-[4-(2,3-dichlorophenyl)-1-piperazinyl]butoxy]-3,4-dihydrocarbostyril] | practically insoluble | –
2 | O=C(O)C=CC(=O)O.O=C1CCc2ccc(OCCCCN3CCN(c4cccc(Cl)c4Cl)CC3)cc2N1.O=C1CCc2ccc(OCCCCN3CCN(c4cccc(Cl)c4Cl)CC3)cc2N1 [Example 2] | – | retain its polymorphic form

From patent US20090054455A1, “ARIPIPRAZOLE CO-CRYSTALS” (DR. REDDY'S LABORATORIES LTD., priority 2006, published 2009)
